Reference: US20190322960A1, “FRAGRANCE COMPOSITIONS AND METHODS OF USE THEREOF” (TAKASAGO INTERNATIONAL CORPORATION, priority 2016, published 2019)

Columns and labels:
salivary alpha-amylase = test: Stress test (timed mathematical and word test), salivary alpha-amylase of panelists exposed to fragrance; format: in vivo, human; details: for effect on salivary alpha-amylase levels as compared to the DPG control (in words): exposed panelists, stress test; for % Change in Alpha-amylase (i.e., before versus after stress): panelists exposed during stress test, saliva before and immediately after stress test, DPG solvent, DPG control 51.9%
Protocol: (§1) Stress was induced in each panelist using a timed mathematical and word test, which was administered to panelists in a small group competition setting to induce stress in each of the panelists. At set time intervals during the test, each panelist was exposed to either a single fragrance compound or to a DPG control.
(§2) Saliva was collected for each panelist before and immediately after the stress test. Saliva samples were assayed for salivary alpha-amylase activity and salivary cortisol levels using a commercially available assay kit (e.g., Salimetrics®).
(§3) Table 1-A summarizes the percent change (i.e., before stress versus after stress) in the salivary alpha-amylase levels of panelists exposed to fragrance compounds of the present disclosure during the stress test. In addition, the table illustrates the statistical significance of the change in alpha-amylase levels (i.e., p-value or probability value, P) of each of the fragrance compounds as compared to DPG, representing the change in the control (i.e., just DPG without a fragrance compound before stress and after stress).
(§4) Saliva was collected before and immediately after the stress test. Saliva samples were assayed for salivary alpha-amylase activity and salivary cortisol levels using a commercially available assay kit (e.g., Salimetrics®).
as §3, with “5-A” for “1-A”

salivary cortisol = test: Stress test (timed mathematical and word test), salivary cortisol of panelists exposed to fragrance; format: in vivo, human; details: for effect on salivary cortisol levels as compared to the control (in words): exposed panelists, stress test; for % Change in Cortisol (i.e., before versus after stress): panelists exposed during stress test, saliva before and immediately after stress test, DPG solvent, DPG control 10.8%
Protocol: as §1, §2
as §3, with “Table 1-B” for “Table 1-A”, “salivary cortisol” for “salivary alpha-amylase”, “in salivary cortisol” for “in alpha-amylase”
as §4
as §3, with “Table 5-B” for “Table 1-A”, “salivary cortisol” for “salivary alpha-amylase”, “in salivary cortisol” for “in alpha-amylase”

| SMILES | effect on salivary alpha-amylase levels as compared to the DPG control (in words) (salivary alpha-amylase) | % Change in Alpha-amylase (i.e., before versus after stress) (salivary alpha-amylase) [%] | effect on salivary cortisol levels as compared to the control (in words) (salivary cortisol) | % Change in Cortisol (i.e., before versus after stress) (salivary cortisol) [%] |
| --- | --- | --- | --- | --- |
| CC1=CCC(C(C)CC2CCCC2=O)CC1 (centres unmarked) [2-(2-(4-methyl-3-cyclohexen-1-yl)propyl)cyclopentanone] | limited the increase in salivary alpha-amylase levels | 33.5 | the levels of salivary cortisol were limited | −10.6 |
| CC(=O)OC(C)(C)C1CC=C(C)CC1 (centres unmarked) [Terpinyl Acetate, terpinyl acetate] | limited the increase in salivary alpha-amylase levels | 16.5 | the levels of salivary cortisol were limited | −9.1 |
| C=C(C)[C@H]1CC=C(C)CC1 [Limonene, limonene] | limited the increase in salivary alpha-amylase levels | −15.9 | – | 21.05 |
